US10246457B2, “Indazole and azaindazole Btk inhibitors” (MERCK SHARP & DOHME CORP., priority 2015, dated 2019)

How the values were obtained:
[1] = target: 100P Btk enzyme (activated full-length Btk) (Homo sapiens (Human), UniProt Q06187); test: 100P Btk Enzyme Activity Assay (LANCE TR-FRET); type: biochemical; conditions: activated Btk (100P), 25 μM ATP, 60 minute compound and enzyme incubation; top concentration 1000 nM; read-out: Btk binding IC50 (nM) with 100 P
Experimental: Activated full-length Btk recombinant enzyme was expressed and purified in the same manner as the […] enzyme, except an auto-phosphorylation step was added to the purification scheme. […] This protein represents the activated state of the Btk enzyme. […] Btk Enzyme Activity Assay Btk enzymatic activity was determined with the LANCE (Lanthanide Chelate Excite) TR-FRET (lime-resolved fluorescence resonance energy transfer) assay. […] MW=79378 Da). […] Phosphorylation reactions were allowed to proceed for 45 minutes. […] After 60 minutes incubation with detection reagents, reaction plates were read on a PerkinElmer EnVision plate reader using standard TR-FRET protocol. Briefly, excitation of donor molecules (Eu-chelate:anti-phospho-antibody) with a laser light source at 337 nm produces energy that can be transferred to Dylight-650 acceptor molecules if this donor:acceptor pair is within close proximity. Fluorescence intensity at both 665 nm (acceptor) and 615 nm (donor) are measured and a TR-FRET ratio calculated for each well (acceptor intensity/donor intensity). […] (Log10) compound concentrations.

[2] = target: 25P Btk enzyme (un-activated full-length Btk) (Homo sapiens (Human), UniProt Q06187); test: 25P Btk Enzyme Activity Assay (LANCE TR-FRET); type: biochemical; conditions: un-activated Btk (25P), 25 μM ATP, 60 minute compound and enzyme incubation; read-out: Btk binding IC50 (nM) with 25 P
Experimental: Preparation of Un-Activated Btk Enzyme (25P Btk)
Un-activated full-length Btk recombinant protein was purified from baculovirus-transfected Sf21 cells. […] This protein represents the un-activated state of the Btk enzyme.
25P Btk Enzyme Activity Assay
Btk enzymatic activity was determined with the LANCE (Lanthanide Chelate Excite) TR-FRET (lime-resolved fluorescence resonance energy transfer) assay. […] To each well of a black non-binding surface Corning 384-well microplate (Corning Catalog #3820), 5 nL of compound (2000 fold dilution in final assay volume of 10 μL) was dispensed, followed by the addition of 7.5 μL of 1× kinase buffer (50 mM Hepes 7.5, 10 mM MgCl2, 0.01% Brij-35, 1 mM EGTA, 0.05% BSA and 1 mM DTT) containing 26.67 pg/μL (266.7 pM) of 25P Btk enzyme (recombinant protein from baculovirus-transfected Sf9 cells: full-length Btk; MW=79378 Da). Following a 60 minute compound and enzyme incubation, each reaction was initiated by the addition of 2.5 μL 1× kinase buffer containing 8 μM biotinylated “A5” peptide (Biotin-EQEDEPEGDYFEWLE-NH2), and 100 μM ATP. The final reaction in each well of 10 consists of 200 pM 25P Btk, 2 μM biotin-A5-peptide, and 25 μM ATP. Phosphorylation reactions were allowed to proceed for 120 minutes. Reactions were immediately quenched by the addition of 20 uL of 1× quench buffer (15 mM EDTA, 25 mM Hepes 7.3, and 0.1% Triton X-100) containing detection reagents (0.626 nM of LANCE-Eu-W1024-anti-phosphoTyrosine antibody, PerkinElmer and 86.8 nM of Streptavidin-conjugated Dylight 650, Dyomics/ThermoFisher Scientific). After 60 minutes incubation with detection reagents, reaction plates were read on a PerkinElmer EnVision plate reader using standard TR-FRET protocol. Briefly, excitation of donor molecules (Eu-chelate:anti-phospho-antibody) with a laser light source at 337 nm produces energy that can be transferred to Dylight-650 acceptor molecules if this donor:acceptor pair is within close proximity. Fluorescence intensity at both 665 nm (acceptor) and 615 nm (donor) are measured and a TR-FRET ratio calculated for each well (acceptor intensity/donor intensity). IC50 values were determined by 4 parameter robust fit of TR-FRET ratio values vs. (Log10) compound concentrations.

Sequence of 25P Btk enzyme (un-activated full-length Btk) (Q06187 whole entry): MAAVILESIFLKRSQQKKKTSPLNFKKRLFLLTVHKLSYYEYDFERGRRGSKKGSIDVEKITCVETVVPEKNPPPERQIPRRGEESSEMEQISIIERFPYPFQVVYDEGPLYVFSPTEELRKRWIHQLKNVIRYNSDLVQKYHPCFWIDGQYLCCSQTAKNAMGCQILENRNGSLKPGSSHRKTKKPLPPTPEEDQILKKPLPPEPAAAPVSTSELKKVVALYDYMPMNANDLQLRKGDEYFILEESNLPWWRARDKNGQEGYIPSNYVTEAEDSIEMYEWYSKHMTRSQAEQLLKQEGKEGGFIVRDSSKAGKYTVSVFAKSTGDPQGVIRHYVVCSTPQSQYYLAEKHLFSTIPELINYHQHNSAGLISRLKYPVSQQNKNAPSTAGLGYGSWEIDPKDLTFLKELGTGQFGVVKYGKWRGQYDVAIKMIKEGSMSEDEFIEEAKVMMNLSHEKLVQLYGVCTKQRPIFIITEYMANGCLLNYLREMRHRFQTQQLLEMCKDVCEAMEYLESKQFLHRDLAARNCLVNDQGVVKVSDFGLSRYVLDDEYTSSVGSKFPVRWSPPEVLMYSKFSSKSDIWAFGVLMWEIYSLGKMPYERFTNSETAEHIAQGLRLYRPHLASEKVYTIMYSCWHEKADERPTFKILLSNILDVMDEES
Sequence of 100P Btk enzyme (activated full-length Btk) (Q06187 whole entry): as above

SMILES	IC50 [1] [nM]	IC50 [2] [nM]
CC(C)(C)c1cc(F)c2c(=O)n(-c3cccc(-c4cc(C(=O)O)c5[nH]nc(N)c5c4)c3CO)ncc2c1 [Example 1, 3-amino-5-[3-(6-tert-butyl-8-fluoro-1-oxophthalazin-2(1H)-yl)-2-(hydroxymethyl)phenyl]-1H-indazole-7-carboxylic acid]	112	0.14
Cc1cc2[nH]nc(N)c2cc1-c1cccc(-n2ncc3cc(C(C)(C)C)cc(F)c3c2=O)c1CO [Example 2, 2-[3-(3-amino-6-methyl-1H-indazol-5-yl)-2-(hydroxymethyl)phenyl]-6-tert-butyl-8-fluorophthalazin-1(2H)-one]	341	10.9
CC(C)(C)c1cc(F)c2c(=O)n(-c3cccc(-c4cc(C(N)=O)c5[nH]nc(N)c5c4)c3CO)ncc2c1 [Example 3, 3-amino-5-[3-(6-tert-butyl-8-fluoro-1-oxophthalazin-2(1H)-yl)-2-(hydroxymethyl)phenyl]-1H-indazole-7-carboxamide]	16	0.16
CC(C)(C)c1cc(F)c2c(=O)n(-c3cccc(-c4cc(C(F)(F)F)c5[nH]nc(N)c5c4)c3CO)ncc2c1 [Example 4, 2-{3-[3-amino-7-(trifluoromethyl)-1H-indazol-5-yl]-2-(hydroxymethyl)phenyl}-6-tert-butyl-8-fluorophthalazin-1(2H)-one]		38.6
Cn1nc(N)c2cc(-c3cccc(-n4ncc5cc(C(C)(C)C)cc(F)c5c4=O)c3CO)cc(C(N)=O)c21 [Example 5, 3-amino-5-[3-(6-tert-butyl-8-fluoro-1-oxophthalazin-2 (1H)-yl)-2-(hydroxymethyl)phenyl]-1-methyl-1H-indazole-7-carboxamide]		47.3
CC(C)n1cc(-c2cc(-c3cccc(-n4ncc5cc(C(C)(C)C)cc(F)c5c4=O)c3CO)cc3c(N)n[nH]c23)cn1 [Example 6, 2-[3-{3-amino-7-[1-(1-methylethyl)-1H-pyrazol-4-yl]-1H-indazol-5-yl}-2-(hydroxymethyl)phenyl]-6-tert-butyl-8-fluorophthalazin-1(2H)-one]	3.8	0.15
Cc1c(NC(=O)c2ccc(C(C)(C)C)cc2F)cccc1-c1cc(C(N)=O)c2[nH]nc(N)c2c1 [Example 7, 3-amino-5-(3-{[(4-tert-butyl-2-fluorophenyl)carbonyl]amino}-2-methylphenyl)-1H-indazole-7-carboxamide]		64.5
Cc1c(NC(=O)c2ccc(C(C)(C)C(F)(F)F)cc2F)cccc1-c1cc(C(N)=O)c2[nH]nc(N)c2c1 [Example 8, 3-amino-5-[3-({[2-fluoro-4-(2,2,2-trifluoro-1,1-dimethylethyl)phenyl]carbonyl}amino)-2-methylphenyl]-1H-indazole-7-carboxamide]		268
Cn1cc(-c2cc(-c3cccc(-n4ncc5cc(C(C)(C)C)cc(F)c5c4=O)c3CO)cc3c(N)n[nH]c23)cn1 [Example 9, 2-{3-[3-amino-7-(1-methyl-1H-pyrazol-4-yl)-1H-indazol-5-yl]-2-(hydroxymethyl)phenyl}-6-tert-butyl-8-fluorophthalazin-1(2H)-one]	5.3	0.073
CC(C)(C)c1cc(F)c2c(=O)n(-c3cccc(-c4cc(-c5cccnc5)c5[nH]nc(N)c5c4)c3CO)ncc2c1 [Example 10, 2-[3-(3-amino-7-pyridin-3-yl-1H-indazol-5-yl)-2-(hydroxymethyl)phenyl]-6-tert-butyl-8-fluorophthalazin-1(2H)-one]	299	0.8
CNC(=O)c1cc(-c2cccc(-n3ncc4cc(C(C)(C)C)cc(F)c4c3=O)c2CO)cc2c(N)n[nH]c12 [Example 11, 3-amino-5-[3-(6-tert-butyl-8-fluoro-1-oxophthalazin-2(1H)-yl)-2-(hydroxymethyl)phenyl]-N-methyl-1H-indazole-7-carboxamide]	29.3	0.16
CC(C)(C)c1cc(F)c2c(=O)n(-c3cccc(-c4ccc5c(c4)c(N)nn5Cc4ccncc4)c3CO)ncc2c1 [Example 12, 2-{3-[3-amino-1-(pyridin-4-ylmethyl)-1H-indazol-5-yl]-2-(hydroxymethyl)phenyl}-6-tert-butyl-8-fluorophthalazin-1(2H)-one]		29.6
Cc1c(NC(=O)c2ccc(C(C)(C)C)cc2)cccc1-c1cc(-c2cnn(C)c2)c2[nH]nc(N)c2c1 [Example 13, N-{3-[3-amino-7-(1-methyl-1H-pyrazol-4-yl)-1H-indazol-5-yl]-2-methylphenyl}-4-tert-butylbenzamide]		16.7

Continued, values first:

IC50 [1] [nM]	IC50 [2] [nM]	SMILES
	173	CC(C)(C)c1cc(F)c2c(=O)n(-c3cccc(-c4cc(C(=O)N5CCOCC5)c5[nH]nc(N)c5c4)c3CO)ncc2c1 [Example 14, 2-{3-[3-amino-7-(morpholin-4-ylcarbonyl)-1H-indazol-5-yl]-2-(hydroxymethyl)phenyl}-6-tert-butyl-8-fluorophthalazin-1(2H)-one]
145	0.49	CC(C)(C)c1cc(F)c2c(c1)CCN(c1cccc(-c3cc(C(N)=O)c4[nH]nc(N)c4c3)c1CO)C2=O [Example 16, 3-amino-5-[3-(6-tert-butyl-8-fluoro-1-oxo-3,4-dihydroisoquinolin-2(1H)-yl)-2-(hydroxymethyl)phenyl]-1H-indazole-7-carboxamide]
13	0.16	CC(C)n1ccc(-c2cc(-c3cccc(-n4ncc5cc(C(C)(C)C)cc(F)c5c4=O)c3CO)cc3c(N)n[nH]c23)n1 [Example 17, 2-[3-{3-amino-7-[1(1-methylethyl)-1H-pyrazol-3-yl]-1H-indazol-5-yl}-2-(hydroxymethyl)phenyl]-6-tert-butyl-8-fluorophthalazin-1(2H)-one]
11.6	0.13	Cn1cc(-c2cc(-c3cccc(NC(=O)c4cc5c(s4)CCCC5)c3CO)cc3c(N)n[nH]c23)cn1 [Example 18, N-{3-[3-amino-7-(1-methyl-1H-pyrazol-4-yl)-1H-indazol-5-yl]-2-(hydroxymethyl)phenyl}-4,5,6,7-tetrahydro-1-benzothiophene-2-carboxamide]
429	0.48	CC(C)(C)c1cc(F)c2c(=O)n(-c3cccc(-c4cc(-c5ccccc5)c5[nH]nc(N)c5c4)c3CO)ncc2c1 [Example 19, 2-[3-(3-amino-7-phenyl-1H-indazol-5-yl)-2-(hydroxymethyl)phenyl]-6-tert-butyl-8-fluorophthalazin-1(2H)-one]
	7.7	CC(C)(C)c1cc(F)c2c(=O)n(-c3cccc(-c4ccc5[nH]nc(N)c5n4)c3CO)ncc2c1 [Example 20, 2-[3-(3-amino-1H-pyrazolo[4,3-b]pyridin-5-yl)-2-(hydroxymethyl)phenyl]-6-tert-butyl-8-fluorophthalazin-1(2H)-one]
801	9.5	CC(C)(C)c1cc(F)c2c(=O)n(-c3cccc(-c4cc5c(N)n[nH]c5cn4)c3CO)ncc2c1 [Example 21, 2-[3-(3-amino-1H-pyrazolo[3,4-c]pyridin-5-yl)-2-(hydroxymethyl)phenyl]-6-tert-butyl-8-fluorophthalazin-1(2H)-one]
17.4	0.11	CC(C)(C)c1cc(F)c2c(=O)n(-c3cccc(-c4cc(-c5ccccn5)c5[nH]nc(N)c5c4)c3CO)ncc2c1 [Example 22, 2-(3-(3-amino-7-(pyridin-2-yl)-1H-indazol-5-yl)-2-(hydroxymethyl)phenyl)-6-(tert-butyl)-8-fluorophthalazin-1(2H)-one]
